Data published in US20230087766A1, “METHODS OF REACTIVATING LATENT HUMAN IMMUNODEFICIENCY VIRUS AND RELATED COMPOSITIONS” (priority 2017, published 2023).

What was measured:
Type in all cases: cell-based
[1] = test system: latent HIV in primary CD4+ T cells from HIV-infected patients under suppressive ART; assay: HIV transcription by ddPCR in primary CD4+ T cells from HIV-infected patients; settings: primary CD4+ T cells of 6 patients; 40 mM Na-Cro or 12 nM PEP005; 6 hours; ddPCR
Description: Panels A-C illustrate that primary CD4+ T cells were treated with […] PMA 2 plus 2 μg/ml ionomycin, 12 nM PEP005, 40 mM Na-Cro, or 12 nM PEP005 combined with 40 mM Na-Cro for 6 hours. Viral transcription from total RNA was analyzed by RT-ddPCR with primers targeting initiation (TAR region) (see panel A), elongation (long LTR) (see panel B), or full transcription (poly A region) (see panel C) of the HIV genome. Panel D illustrates a working model of epigenetic regulation of HIV latency/transcription by histone crotonylation.
To validate this finding in the ex vivo primary CD4+ T cells from patients the peripheral blood samples from 6 HIV-infected patients under suppressive ART were obtained. They had undetectable plasma viral load (<20 copies/ml plasma) and >400 CD4+ T cell number per […] (see Table 1). Primary CD4+ T cells were treated with PMA/Ionomycin, PEP005, Na-Cro, or PEP005 in combination with Na-Cro for 6 hours. HIV transcription following reactivation was measured by digital droplet PCR (ddPCR) targeting TAR region (initiation), long LTR region (elongation), or Poly A region (full transcription) of HIV genome (see G. Jiang, et al. PLoS pathogens 11, e1005066 (2015); P. Kaiser, et al. Journal of virological methods 242, 1-8 (2017); and L. Shan, et al. Journal of Virology 87, 6521-6525 (2013)).
Primary CD4+ T Cell Isolation, Treatment, and Digital Droplet PCR Assays: Peripheral blood samples were obtained from HIV-infected individuals (age ranging from 46-62 years old) on suppressive ART for >8 years (n=6). The plasma viral loads were below the detective level (<20 copies/ml plasma) and the average CD4+ T cell number was 664.4±180.5 cells/ml. The primary CD4+ T cells were isolated using the EASYSEP™ kit ([…]™ Technologies Inc., Vancouver, BC, Canada) as previously described (see G. Jiang, et al. PLoS pathogens 11, el 005066 (2015) and G. Jiang, et al. AIDS 28, 1555-1566 (2014)). The purified CD4+ T cells were plated at a density of 0.5-1×10^6 cells and treated with Control, 200 ng/ml PMA plus 2 μM lonomycin, 12 nM PEP005, 40 mM Na-Cro, or 12 nM PEP005 plus 40 mM Na-Cro for 6 hours. Cell pellets were collected for RNA isolation. Initiation, elongation, or full transcription of HIV was analyzed with ddPCR assays as reported before (see G. Jiang, et al. PLoS pathogens 11, e1005066 (2015); P. Kaiser, et al. Journal of virological methods 242, 1-8 (2017); and L. Shan, et al. Journal of virology 87, 6521-6525 (2013)).

latent HIV in U1 cells = assay: p24 ELISA in U1 cells; settings: day 6
Description: (§1) Cell culture: J-Lat Al cells (derived from Jurkat cells harboring HIV LTR-Tat-GFP gene) and U1 cells (promonocytic cell line harboring one copy of HIV genome with defective tat gene) were obtained from NIH AIDS Reagent Program and cultured at 37° C. with 5% CO2 in RPM11640 medium containing 10% FBS and 1% penicillin-streptomycin as previously described (see G. Jiang, et al. PLoS Pathogens 11, e1005066 (2015)).
(§2) For inhibiting ACSS2 and crotonylation, cells were pretreated with ACSS2 inhibitor, AR12 (SELLECK CHEMICALS™, Houston, Tex.), for 30 minutes, followed by Na-Cro treatment for 4 or 18 hours.

[2] = test system: latent HIV (HIV LTR-driven transcription) in J-Lat A1 cells
Description: as §1, §2
Real-Time PCR Analysis: HIV gene expression was measured using real-time PCR in J-Lat Al cells treated with LRAs. Total nucleic acid was extracted using RNEASY™ Kit, genomic DNA digested using DNase I and total RNA reverse transcribed using Superscript III to synthesize cDNA. […] […] TAMRA-3′ (SEQ ID NO:3).

`C/C=C/C(=O)[O-].[Na+]` [Na-Cro, sodium crotonate] was tested, and the “elongation of HIV transcripts (long LTR), patients responding” value [1] was “all 6 patients”, the “full-length transcription of HIV (poly A region), patients responding” value [1] was 4 of the 6 patients and the “initiation of HIV transcription (TAR region), patients responding” value [1] was “all 6 patients”. For the same molecule, the p24 antigen (latent HIV in U1 cells; 20 mM Na-Cro) was “over 500 pg/mL”, the p24 antigen (latent HIV in U1 cells; 40 mM Na-Cro) was over 2000 pg/mL and the “induction of HIV LTR-driven transcription” value ([2]; J-Lat A1 and U1 cell cultures) was “dose-dependent manner”. The “reactivation of latent HIV by epigenetic modifiers” value ([2]; J-Lat A1 cells, 30 mM Na-Cro, 500 nM SAHA, 2 μM GSK343 or 5 μM AZA-dc, RT-qPCR) was “comparable capacity to reactivate latent HIV”, the “increase in HIV transcription compared to untreated controls” value ([2]; J-Lat A1 cells, Na-Cro at 40 mM) was 12 fold and the “HIV reactivation compared to the control” value ([2]; Na-Cro alone, AR12 experiment (FIG. 3, panel D)) was 8 fold.
